Results reported in patent publication US20260007625A1, “Compounds for the Treatment of Neuromuscular Disorders” (NMD PHARMA A/S, priority 2022, published 2026).

Assays:
[1] = test system: isolated rat soleus muscles exposed to tubocurarine; experiment: Recovery of nerve-stimulated contractile force in isolated rat soleus nerve-muscle preparation after tubocurarine; conditions: tubocurarine 115 nM, after 40 mins of compound exposure
Experimental: The current disclosure relates to compounds that inhibit CIC-1 ion channels and increase muscle excitability and thereby improve muscle function in clinical conditions where muscle activation is failing. Such conditions result in loss of contractile function of skeletal muscle, weakness and excessive fatigue. In this series of experiments the compounds were tested for their ability to restore contractile function of isolated rat muscle when the neuromuscular transmission had been compromised akin to neuromuscular disorders.
Experimentally, soleus muscles from 4-5 week old rats were isolated with the motor nerve remaining attached. The nerve-muscle preparations were mounted in experimental setups that enabled electrical stimulation of the motor nerve. Stimulation of the motor nerve led to activation of the muscle fibres and ensuing force production that was recorded. The nerve-muscle preparations were also in these experiments incubated in the standard Krebs Ringer (see example 15) and the solution was heated to 30° C. and continuously equilibrated with a mixture of 95% O2 and 5% CO2, PH ˜7.4.
After mounting the nerve-muscle preparation in the experimental setup, the contractile function of the muscle was initially assessed under the control conditions. Sub-maximal concentration of tubocurarine (115 nM), an acetylcholine receptor antagonist, was then added to the experimental bath to impose partial inhibition of the ability of the motor nerve to activate the muscle fibres. The experimental condition mimics the failing neuromuscular transmission in a range of neuromuscular disorders. After addition of tubocurarine the contractile force declined over the next 90 minutes to 10-50% of the control force. The test compound was then added to obtain the required compound concentration in the bath and the contractile force recovered was measured. To quantify the ability of the compound to restore force the percentage of the initial force that was restored was determined after 40 mins of compound exposure and the point increase is reported in Table 2.

CIC-1 ion channel = molecular target: T1, CIC-1 ion channel (Rattus norvegicus, UniProt P35524); experiment: Electrophysiological measurement (Gm, three micro-electrodes) of compound inhibition of CIC-1 in rat soleus muscle fibres; assay type: cell-based; conditions: Gm in whole rat soleus muscle fibres, approx. 30° C., four increasing compound concentrations
T1 construct: from tissue; host or cells: intact soleus muscle of 12-14 week old Wistar rats
T1 sequence (P35524 1-994): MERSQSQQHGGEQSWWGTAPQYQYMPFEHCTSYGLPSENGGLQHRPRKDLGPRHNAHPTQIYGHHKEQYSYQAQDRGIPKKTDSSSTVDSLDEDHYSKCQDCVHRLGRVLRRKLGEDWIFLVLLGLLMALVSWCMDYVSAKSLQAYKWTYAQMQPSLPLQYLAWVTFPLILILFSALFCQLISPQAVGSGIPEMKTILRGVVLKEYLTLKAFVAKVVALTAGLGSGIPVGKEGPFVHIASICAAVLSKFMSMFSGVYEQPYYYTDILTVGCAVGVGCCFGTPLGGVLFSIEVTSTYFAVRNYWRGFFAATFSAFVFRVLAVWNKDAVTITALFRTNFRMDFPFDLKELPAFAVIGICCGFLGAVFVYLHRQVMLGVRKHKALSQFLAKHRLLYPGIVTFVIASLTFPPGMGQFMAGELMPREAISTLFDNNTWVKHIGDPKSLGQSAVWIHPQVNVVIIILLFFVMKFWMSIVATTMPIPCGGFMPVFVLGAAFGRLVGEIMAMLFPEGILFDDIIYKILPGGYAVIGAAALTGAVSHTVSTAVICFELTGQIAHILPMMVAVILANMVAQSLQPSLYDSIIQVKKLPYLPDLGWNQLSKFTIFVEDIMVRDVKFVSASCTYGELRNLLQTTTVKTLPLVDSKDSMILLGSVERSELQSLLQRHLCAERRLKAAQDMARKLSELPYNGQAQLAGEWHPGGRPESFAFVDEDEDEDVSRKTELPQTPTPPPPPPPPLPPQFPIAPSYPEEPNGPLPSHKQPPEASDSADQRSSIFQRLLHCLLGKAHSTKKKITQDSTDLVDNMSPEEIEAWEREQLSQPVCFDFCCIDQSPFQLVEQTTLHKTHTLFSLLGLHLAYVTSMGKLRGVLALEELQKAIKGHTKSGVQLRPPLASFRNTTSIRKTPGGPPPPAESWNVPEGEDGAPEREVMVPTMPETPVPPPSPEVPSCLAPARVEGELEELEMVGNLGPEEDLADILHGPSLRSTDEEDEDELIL
Experimental: Apparent CIC-1 affinity was reported by the concentration of compound at which 50% of the compound's full inhibition of CIC-1 was observed (EC50).
Experimentally, Gm was measured in individual fibres of whole rat soleus muscles using a three micro-electrodes technique described in this example and in full detail elsewhere (Riisager et al., Determination of cable parameters in skeletal muscle fibres during repetitive firing of action potentials. Journal of Physiology, 2014, 592, 4417-4429). Briefly, intact rat soleus muscles were dissected out from 12-14 week old Wistar rats and placed in an experimental chamber that was perfused with a standard Krebs Ringer solution containing 122 mM NaCl, 25 mM NaHCO3, 2.8 mM KCl, 1.2 mM KH2PO4, 1.2 mM MgSO4, 1.3 mM CaCl2), 5.0 mM D-glucose. During experiments, the solution was kept at approx. 30° C. and continuously equilibrated with a mixture of 95% O2 and 5% CO2, PH ˜7.4. The experimental chamber was placed in Nikon upright microscope that was used to visualize individual muscle fibres and the three electrodes (glass pipettes filled with 2 M potassium citrate). For Gm measurements, the electrodes were inserted into the same fibre with known inter-electrode distances of 0.35-0.5 mm (V1-V2, X1) and 1.1-1.5 mm (V1-V3, X3). The membrane potential of the impaled muscle fibre was recorded by all electrodes. Two of the electrodes were furthermore used to inject 50 ms current pulses of −30 nA. […] The steady state voltage deflection at each distance was divided by the magnitude of current injected (−30 nA) and the resulting transfer resistances were plotted against inter-electrode distance and the data was fitted to a mono-exponential function from which Gm could be calculated using linear cable theory.
To establish a dose response relationship, Gm was first determined in 10 muscle fibres in the absence of compound and then at four increasing compound concentrations with Gm determinations in 5-10 fibres at each concentration. The average Gm values at each concentration were plotted against compound concentration and the data was fitted to sigmoidal function to obtain an EC50 value.

Lewis rats = experiment: In situ isometric hindlimb force in anaesthetised rats under partial neuromuscular block by Cisatracurium; assay type: in vivo, rat; conditions: sodium salt, 80 Hz stimulation, Cisatracurium infusion
Experimental: Isometric hindlimb force was measured in 12-week old female Lewis rats in the presence and absence of compound.
Rats were placed under anaesthesia with isoflurane (2-4%), intubated and subsequently connected to a micro ventilator (Microvent 1, Hallowell EMC, US). Two stimulation electrodes were inserted through the skin to stimulate the sciatic nerve. A small incision was made proximal to the ankle, to expose the Achilles tendon, which was tied by cotton string, and connected to a force transducer (Fort250, World Precision Instruments) with adjustable position (Vernier control). The Achilles tendon was then cut distal to the attached cotton string. […]
Muscle contractile properties were assessed by applying an electrical current (under supramaximal voltage conditions) to the nerve and recording the force generated by the muscle. The muscle was stretched until maximal force was obtained, when assessed by 2 Hz stimulation. Isometric force was measured every 30 seconds at 12 Hz (Twitch), 10 pulses, and at every 5 minutes at 80 Hz (Tetanic) for 1 second (80 pulses). […] The effect of test article was assessed on its ability to increase force generated from the stimulation pattern applied. The effect was assessed in the ability to increase force per se (tetanic, 80 Hz, stimulation), and the ratio between individual twitch peaks (12 Hz stimulation). […]

| SMILES | Point increase, percentage of initial force that was restored ([1]; test compound 50 μM) [%] | EC50 (CIC-1 ion channel) [µM] | Point increase, percentage of initial force that was restored ([1]; test compound 10 μM) [%] | further results |
| --- | --- | --- | --- | --- |
| COc1c(C)cc(F)c(OC)c1C(=O)O [Compound A-1, 3-fluoro-2,6-dimethoxy-5-methylbenzoic acid] | 19 |  |  |  |
| COc1c(F)cc(Br)c(OC)c1C(=O)O [Compound A-2, 3-bromo-5-fluoro-2,6-dimethoxybenzoic acid] |  |  |  | Point increase, percentage of initial force that was restored ([1]; test compound 100 μM): 16% |
| COc1c(Cl)cc(Cl)c(OC)c1C(=O)O [Compound A-3, 3,5-Dichloro-2,6-dimethoxybenzoic acid] | 46 | 7.4 |  |  |
| Cc1cc(Cl)c(OC(F)(F)F)c(C(=O)O)c1C [Compound A-4, 3-chloro-5,6-dimethyl-2-(trifluoromethoxy)benzoic acid] |  | 1.7 | 23 |  |
| Cc1cc(Cl)c(OC2CC2)c(C(=O)O)c1C [Compound A-5, 3-chloro-2-cyclopropoxy-5,6-dimethylbenzoic acid] | 48 | 6.6 |  |  |
| COc1c(Cl)cc(C)c(Cl)c1C(=O)O [Compound A-6, 2,5-dichloro-6-methoxy-3-methylbenzoic acid] |  | 5.8 | 28 |  |
| COc1c(C)cc(Cl)c(OC)c1C(=O)O [Compound A-7, 3-chloro-2,6-dimethoxy-5-methylbenzoic acid] | 44 | 5.3 |  | increase in tetanic force (Lewis rats; 2.5 mg/kg i.v. in PBS): 27% |
| CSc1c(Cl)cc(C)c(C)c1C(=O)O [Compound A-8, 3-chloro-5,6-dimethyl-2-(methylsulphanyl)benzoic acid] |  | 3.2 | 24 |  |
| Cc1cc(Cl)c(OC(F)F)c(C(=O)O)c1C [Compound A-9, 3-chloro-2-(difluoromethoxy)-5,6-dimethylbenzoic acid] | 50 | 4.3 |  |  |
| Cc1cc(Cl)c(OCF)c(C(=O)O)c1C [Compound A-10, 3-chloro-2-(fluoromethoxy)-5,6-dimethylbenzoic acid] |  | 4.1 | 21 |  |
| COc1c(F)cc(C)c(C)c1C(=O)O [Compound A-11, 3-fluoro-2-methoxy-5,6-dimethylbenzoic acid] | 25 |  |  |  |
| CCOc1c(Cl)cc(C)c(C)c1C(=O)O [Compound A-12, 3-chloro-2-ethoxy-5,6-dimethylbenzoic acid] | 39 |  |  |  |
| COc1c(Br)cc(C)c(C)c1C(=O)O [Compound A-13, 3-bromo-2-methoxy-5,6-dimethylbenzoic acid] |  | 4.4 | 29 |  |
| COc1c(Cl)cc(C)c(C)c1C(=O)O [Compound A-14, 3-chloro-2-methoxy-5,6-dimethylbenzoic acid] | 44 | 3.2 |  | increase in tetanic force (Lewis rats; 10 mg/kg p.o. in PBS): 45% |
